Source: ChEMBL document CHEMBL5137021, “Organotropic dendrons with high potency as HIV-1, HIV-2 and EV-A71 cell entry inhibitors” (Eur J Med Chem, 2022)

Assays:
[1] = system: Enterovirus A71; experiment: Antiviral activity against EV-A71 genotype A BrCr infected in RD cells assessed as protection against virus induced cytopatheic effect measured after 5 days by MTS assay; type: functional, organism-based; conditions: 120 h
[2] = Selectivity index, ratio of CC50 for human MT4 cells to EC50 for antiviral activity against HIV-1 NL4.3; type: toxicity; conditions: read-out: Ratio CC50/EC50
[3] = system: Enterovirus A71; experiment: Antiviral activity against EV-A71 infected in RD cells assessed as protection against virus induced cytopatheic effect measured after 5 days by MTS assay; type: functional, organism-based; conditions: Enterovirus A, 120 h
[4] = system: Enterovirus A71; experiment: Antiviral activity against Enterovirus A71 BrCr harboring VP1_P246S mutant infected in RD cells assessed as protection against virus induced cytopatheic effect measured after 5 days by MTS assay; type: functional, organism-based
[5] = system: Enterovirus A71; experiment: Antiviral activity against Enterovirus A71 BrCr harboring VP1_S184T mutant infected in RD cells assessed as protection against virus induced cytopatheic effect measured after 5 days by MTS assay; type: functional, organism-based
[6] = system: Human immunodeficiency virus 2; experiment: Antiviral activity against HIV2 ROD infected in human MT4 cells assessed as protection against virus induced cytopatheic effect measured after 5 days by MTS assay; type: functional, organism-based; conditions: Human immunodeficiency virus 2, ROD, MT4, 120 h
[7] = Cytotoxicity against human MT4 cells assessed as cell viability measured after 5 days by MTS assay; type: toxicity, cell-based; conditions: time 5 day
[8] = system: Enterovirus A71; experiment: Antiviral activity against Enterovirus A71 BrCr harboring VP1_S184T_P246S mutant infected in RD cells assessed as protection against virus induced cytopatheic effect measured after 5 days by MTS assay; type: functional, organism-based
[9] = Cytotoxicity against human RD cells assessed as cell viability measured after 5 days by MTS assay; type: toxicity, cell-based; conditions: time 5 day
[10] = system: Human immunodeficiency virus 1; experiment: Antiviral activity against HIV1 NL4-3 infected in human MT4 cells assessed as protection against virus induced cytopatheic effect measured after 5 days by MTS assay; type: functional, organism-based; conditions: Human immunodeficiency virus 1, NL4-3, MT4, 120 h
[11] = Selectivity index, ratio of CC50 for human RD cells to EC50 for antiviral activity against EV-A71; type: toxicity; conditions: read-out: Ratio CC50/EC50
[12] = Ex vivo biodistribution in ip dosed C57BL/6 mouse intestine measured after 2 hrs by fluorescence analysis; type: ADME, organism-based
[13] = Ex vivo biodistribution in ip dosed C57BL/6 mouse intestine measured after 24 hrs by fluorescence analysis; type: ADME, organism-based
[14] = Ex vivo biodistribution in ip dosed C57BL/6 mouse intestine measured after 72 hrs by fluorescence analysis; type: ADME, organism-based
[15] = Ex vivo biodistribution in ip dosed C57BL/6 mouse lung measured after 24 hrs by fluorescence analysis; type: ADME, organism-based
[16] = Ex vivo biodistribution in iv dosed C57BL/6 mouse intestine measured after 2 hrs by fluorescence analysis; type: ADME, organism-based
[17] = Ex vivo biodistribution in ip dosed C57BL/6 mouse lung measured after 72 hrs by fluorescence analysis; type: ADME, organism-based
[18] = system: Enterovirus A71; experiment: Antiviral activity against EV-A71 genotype C4 TW/1956/05 infected in RD cells assessed as protection against virus induced cytopatheic effect measured after 5 days by MTS assay; type: functional, organism-based; conditions: Enterovirus A, genotype C4 TW/1956/05, RD, 120 h
[19] = system: Coxsackievirus B3; experiment: Antiviral activity against Coxsackievirus B3 Nancy strain infected in Vero cells assessed as protection against virus induced cytopatheic effect measured after 5 days by MTS assay; type: functional, organism-based; conditions: Enterovirus B, 120 h
[20] = system: rhinovirus A2; experiment: Antiviral activity against Rhinovirus 2 infected in HeLa cells assessed as protection against virus induced cytopatheic effect measured after 5 days by MTS assay; type: functional, organism-based, Enterovirus; conditions: Rhinovirus A, 2, HeLa, 120 h
[21] = system: Enterovirus A71; experiment: Antiviral activity against EV-A71 genotype B2 11316 infected in RD cells assessed as protection against virus induced cytopatheic effect measured after 5 days by MTS assay; type: functional, organism-based; conditions: Enterovirus A, genotype B2 11316, RD, 120 h
[22] = system: enterovirus D68; experiment: Antiviral activity against Enterovirus D68 CU70 infected in HeLa cells assessed as protection against virus induced cytopatheic effect measured after 5 days by MTS assay; type: functional, organism-based; conditions: Enterovirus D, 120 h
[23] = system: Enterovirus A71; experiment: Antiviral activity against EV-A71 genotype B5 TW/70902/08 infected in RD cells assessed as protection against virus induced cytopatheic effect measured after 5 days by MTS assay; type: functional, organism-based; conditions: Enterovirus A, genotype B5 TW/70902/08, RD, 120 h
[24] = system: Enterovirus A71; experiment: Antiviral activity against Enterovirus A71 BrCr infected in RD cells assessed as protection against virus induced cytopatheic effect measured after 5 days by MTS assay; type: functional, organism-based; conditions: Enterovirus A, 120 h
[25] = system: rhinovirus B14; experiment: Antiviral activity against Rhinovirus 14 infected in HeLa cells assessed as protection against virus induced cytopatheic effect measured after 5 days by MTS assay; type: functional, organism-based, Enterovirus; conditions: Rhinovirus B, 14, HeLa, 120 h
[26] = system: Enterovirus A71; experiment: Antiviral activity against EV-A71 genotype C2 H08300 461#812 infected in RD cells assessed as protection against virus induced cytopatheic effect measured after 5 days by MTS assay; type: functional, organism-based; conditions: Enterovirus A, genotype C2 H08300 461#812, RD, 120 h

Compound | EC50 [1] [nM] | selectivity ratio [2] | EC50 [3] [nM] | EC50 [4] [nM] | EC50 [5] [nM] | EC50 [6] [nM] | CC50 at 120 h [7] [µM] | EC50 [8] [nM] | CC50 at 120 h [9] [µM] | EC50 [10] [nM] | selectivity ratio [11] | also measured
O=C(CCC(CCC(=O)NC(Cc1c(-c2cc(C(=O)O)cc(C(=O)O)c2)[nH]c2ccccc12)C(=O)O)(CCC(=O)NC(Cc1c(-c2cc(C(=O)O)cc(C(=O)O)c2)[nH]c2ccccc12)C(=O)O)[N+](=O)[O-])NC(Cc1c(-c2cc(C(=O)O)cc(C(=O)O)c2)[nH]c2ccccc12)C(=O)O (configuration not stated) | 353 | > 370 | 350 | 1900 | 2300 | 630 | > 100 | 2200 | > 75 | 270 | > 103 | 
CC1(CCCCCCC(=O)NC(CCC(=O)NC(Cc2c(-c3cc(C(=O)O)cc(C(=O)O)c3)[nH]c3ccccc23)C(=O)O)(CCC(=O)NC(Cc2c(-c3cc(C(=O)O)cc(C(=O)O)c3)[nH]c3ccccc23)C(=O)O)CCC(=O)NC(Cc2c(-c3cc(C(=O)O)cc(C(=O)O)c3)[nH]c3ccccc23)C(=O)O)C(/C=C/C=C/C=C2/N(CCCS(=O)(=O)O)c3ccc(S(=O)(=O)O)cc3C2(C)C)=[N+](CCCS(=O)(=O)O)c2ccc(S(=O)(=O)O)cc21.[Na+].[Na+].[Na+].[Na+].[Na+].[Na+].[Na+].[Na+].[Na+].[Na+].[Na+].[Na+] (configuration not stated) |  |  |  |  |  |  |  |  |  |  |  | Drug uptake [12]: Active; Drug uptake [13]: Active; Drug uptake [14]: Active; Drug uptake [15]: Active; Drug uptake [16]: Active; Drug uptake [17]: Active
O=C(CCC(CCC(=O)NC(Cc1c(-c2cc(C(=O)O)cc(C(=O)O)c2)[nH]c2ccccc12)C(=O)O)(CCC(=O)NC(Cc1c(-c2cc(C(=O)O)cc(C(=O)O)c2)[nH]c2ccccc12)C(=O)O)NC(=O)CCCCCCNC(=O)Nc1cc(C(=O)O)cc(C(=O)O)c1)NC(Cc1c(-c2cc(C(=O)O)cc(C(=O)O)c2)[nH]c2ccccc12)C(=O)O (configuration not stated) | 42 | > 92 | 50 | 60 | 300 | 50 | > 100 | 300 | > 100 | 1090 | > 2000 | EC50 [18]: 6 nM; EC50 [19]: > 50 µM; EC50 [20]: > 50 µM; EC50 [21]: 75 nM; EC50 [22]: > 50 µM; EC50 [23]: 2 nM; EC50 [24]: 40 nM; EC50 [25]: > 50 µM; EC50 [26]: 91 nM
